Reference: patent US20230126310A1 (priority 2020, published 2023)
Where a name gives a salt, the structure may show the parent alone. Read-outs that look alike come from different tables or passages of the source.

Tests used:
SARS-CoV-2 [1] = test: microbe, parasite or virus in culture; settings: for inhibition at 10 µM: read-out: % Inh. (% Inhibition of SARS-CoV-2)
[2] = Compound cytotoxicity against CaCo-2 cells at 48 hours; assay type: cell-based, Human; settings: human
Protocol: The cytotoxicity of the profiled compounds towards CaCo-2 cells at 48 hours was assessed. […] After 48 hours, cytotoxicity was evaluated using both digital phase contrast readout as described above and ATP determination (Cell titre-glo, Promega Corp).

SARS-CoV-2 [3] = settings: comparative experiments, Examples 1 and 2
[4] = Severe acute respiratory syndrome coronavirus 2, Caco-2, 48 h
[5] = CaCo-2 cells, Table 5, further results of Examples 1 and 2, mean ± spread
[6] = comparative experiments, CaCo-2 cells, 48 hours
[7] = Severe acute respiratory syndrome coronavirus 2, Caco-2, 48 h, read-out: pIC50 (converted)

Structure (SMILES) | inhibition at 10 µM (SARS-CoV-2 [1]; [4]) | CC50 at 48 h [2, 5] | % Inh (% inhibition of virus infection) (SARS-CoV-2 [3]) | CC50 at 48 h [2, 6] | IC50 (SARS-CoV-2 [1]; [4]) | IC50 (SARS-CoV-2 [1]; [7]) | IC50 (SARS-CoV-2 [1]; Severe acute respiratory syndrome coronavirus 2, Caco-2, read-out: IC50: concentration of 50% inhibition of virus infection, Table 5, further results of Examples 1 and 2, […]) | IC50 (SARS-CoV-2 [1]; Severe acute respiratory syndrome coronavirus 2, Caco-2, read-out: pIC50: -log10 of IC50, Table 5, further results of Examples 1 and 2 (converted)) | CC50 at 48 h ([2]; Table 5, further results of Examples 1 and 2, mean ± spread)
Fc1ccc(C(c2ccc(F)cc2)N2CCN(C/C=C/c3ccccc3)CC2)cc1 [flunarizine] | 79.1% | 137 ± 72.3 µM | – | – | – | – | – | – | –
Cc1cc(C)c(Nc2ccnc(Nc3ccc(C#N)cc3)n2)c(C)c1 [Dapivirine (TMC120), Dapivirine] | 108% | 5 ± 0.07 µM | – | – | – | – | – | – | –
CC(=O)N1CCN(c2ccc(OCC3COC(Cn4ccnc4)(c4ccc(Cl)cc4Cl)O3)cc2)CC1 (stereo not drawn) [KETOCONAZOLE] | 87.1% | 28.6 ± 4.97 µM | – | – | – | – | – | – | –
CC(C)(C)Cn1c(N)nc2ccc(-c3[nH]c(C(C)(C)C)nc3-c3ccc(F)cc3)nc21 [LY2228820, Ralimetinib] | 112% | 56.2 ± 9.79 µM | – | – | – | – | – | – | –
Nc1nc2nc[nH]c2c(=S)[nH]1 [TIOGUANINE] | – | – | 99.9% | 2.21 ± 1.48 µM | – | – | – | – | –
Clc1ccc(Nc2nnc(Cc3ccncc3)c3ccccc23)cc1 [vatalanib] | 85.9% | 64.2 ± 57.4 µM | – | – | 24.4 µM | 24.5 µM | – | – | –
CCOc1ccc(Cc2nccc3cc(OCC)c(OCC)cc23)cc1OCC [ETHAVERINE HYDROCHLORIDE] | 85% | 11 ± 1.07 µM | – | – | 0.54 µM | 0.537 µM | – | – | –
C=CCNc1nc(NCC=C)nc(N2CCN(C(c3ccc(F)cc3)c3ccc(F)cc3)CC2)n1 [Almitrine dimesilate] | 93.2% | 102 ± 73.6 µM | – | – | 1.21 µM | 1.2 µM | – | – | –
CO[C@H]1CC[C@H](N2C(=O)CNc3ncc(-c4ccc(C(C)(C)O)nc4)nc32)CC1 [CC-223] | 104% | 9.49 ± 2.55 µM | – | – | 23.6 µM | 23.4 µM | – | – | –
CC1=C(CCC(=O)O)c2cc3[nH]c(cc4nc(cc5[nH]c(cc1n2)c(C)c5C(C)O)C(C)=C4C(C)O)c(C)c3CCC(=O)O (stereo not drawn) [hematoporphyrin] | 96.8% | 160 ± 139 µM | – | – | – | – | – | – | –
C[C@@H](c1nc(-c2ccc(C#N)cc2)cs1)[C@](O)(Cn1cncn1)c1ccc(F)cc1F [ravuconazole] | 103% | 12.8 ± 0.84 µM | – | – | 2 µM | 2 µM | – | – | –
CN(C)C(=O)COC(=O)Cc1ccc(OC(=O)c2ccc(NC(=N)N)cc2)cc1 [Camostat Mesilate (FOY-305), Camostat Mesilate] | – | – | 86.9% | > 20 µM | – | – | – | – | –
O=C(Nc1nc(-c2cc(Cl)cs2)c(N2CCN(C3CCCCC3)CC2)s1)c1cnc(N2CCC(C(=O)O)CC2)c(Cl)c1 [Avatrombopag] | 95.9% | 20.9 ± 29.5 µM | – | – | 7.17 µM | 7.24 µM | – | – | –
Cc1cccc(C)c1NC(=O)CN1CCN(CCCC(c2ccc(F)cc2)c2ccc(F)cc2)CC1 [lidoflazine] | 95.9% | 31.9 ± 11 µM | – | – | 21.3 µM | 21.4 µM | – | – | –
CNC(=O)c1ccc(C)c(-n2c(C)cc(OCc3ccc(F)cc3F)c(Br)c2=O)c1 [PH-797804] | 81.5% | 20 ± 3.1 µM | – | – | 20.7 µM | 20.4 µM | – | – | –
CCOC(=O)O[C@]1(C(=O)OCCl)CC[C@H]2[C@@H]3CCC4=CC(=O)C=C[C@]4(C)[C@H]3[C@@H](O)C[C@@]21C [Loteprednol etabonate] | 102% | 49 ± 45.9 µM | – | – | 21.3 µM | 21.4 µM | – | – | –
CC(C)S(=O)(=O)NC[C@H](C)c1ccc(-c2ccc(CCNS(C)(=O)=O)cc2)cc1 [Mibampator] | 90.1% | 8.66 ± 1.75 µM | – | – | 2.23 µM | 2.24 µM | – | – | –
CN1CC[C@H](c2c(O)cc(O)c3c(=O)cc(-c4ccccc4Cl)oc23)[C@H](O)C1 [alvocidib] | 87.8% | 0.06 µM | – | – | – | – | – | – | –

Structure (SMILES) | inhibition at 10 µM (SARS-CoV-2 [1]; [4]) | CC50 at 48 h [2, 5] | % Inh (% inhibition of virus infection) (SARS-CoV-2 [3]) | CC50 at 48 h [2, 6] | IC50 (SARS-CoV-2 [1]; [4]) | IC50 (SARS-CoV-2 [1]; [7]) | IC50 (SARS-CoV-2 [1]; Severe acute respiratory syndrome coronavirus 2, Caco-2, read-out: IC50: concentration of 50% inhibition of virus infection, Table 5, further results of Examples 1 and 2, […]) | IC50 (SARS-CoV-2 [1]; Severe acute respiratory syndrome coronavirus 2, Caco-2, read-out: pIC50: -log10 of IC50, Table 5, further results of Examples 1 and 2 (converted)) | CC50 at 48 h ([2]; Table 5, further results of Examples 1 and 2, mean ± spread)
CC(C)c1cc(C(C)C)c(CC(=O)NS(=O)(=O)Oc2c(C(C)C)cccc2C(C)C)c(C(C)C)c1 [Avasimibe (CI-1011), Avasimibe] | 91.4% | 13.7 ± 6.18 µM | – | – | 10.9 µM | 11 µM | – | – | –
CNC(=O)c1cc(Oc2ccc(NC(=O)Nc3ccc(Cl)c(C(F)(F)F)c3)cc2)ccn1 [Sorafenib Tosylate] | 78.7% | 1.17 ± 0.43 µM | – | – | 1.21 µM | 1.2 µM | – | – | –
COC(=O)C[C@](O)(CCCC(C)(C)O)C(=O)O[C@@H]1C(OC)=C[C@]23CCCN2CCc2cc4c(cc2[C@H]13)OCO4 [homoharringtonine] | 154% | 1.72 ± 1.89 µM | – | – | 2.25 µM | 2.24 µM | – | – | –
O=c1ccc2ccc(OCCCCN3CCN(c4cccc5sccc45)CC3)cc2[nH]1 [Brexpiprazole] | 84.8% | 50.6 ± 68.7 µM | – | – | 22.9 µM | 22.9 µM | – | – | –
FC(F)(F)c1ccc(CNc2ccc(Cc3c[nH]c4ncc(Cl)cc34)cn2)cn1 [Pexidartinib] | – | 41.5 ± 32.5 µM | – | – | 5.92 µM | 5.89 µM | – | – | –
CNC(=O)c1cc(Oc2ccc(NC(=O)Nc3ccc(Cl)c(C(F)(F)F)c3)c(F)c2)ccn1 [Regorafenib (BAY 73-4506), Regorafenib] | 91.5% | 0.97 ± 0.6 µM | – | – | – | – | – | – | –
Cc1nc2ccccc2n1Cc1ccc(Cl)cc1 [CHLORMIDAZOLE] | – | 0.88 ± 0.82 µM | – | – | > 1 µM | – | – | – | –
OC(c1cc(C(F)(F)F)nc2c(C(F)(F)F)cccc12)C1CCCCN1 (stereo not drawn) [MEFLOQUINE HYDROCHLORIDE] | 93.3% | 33 ± 7.96 µM | – | – | 28.9 µM | 28.8 µM | – | – | –
Cc1cccc(C)c1OCC(=O)N[C@@H](Cc1ccccc1)[C@@H](O)C[C@H](Cc1ccccc1)NC(=O)[C@H](C(C)C)N1CCCNC1=O [Lopinavir (ABT-378), Lopinavir] | 56.6% | 2130 ± 3590 µM | – | – | – | – | – | – | –
CCOc1ccc(/C=C2\NCCc3cc(OCC)c(OCC)cc32)cc1OCC [drotaverine] | 93.1% | 9 ± 0.96 µM | – | – | – | – | – | – | –
Cc1cc(-c2ncc(CC(=O)Nc3ccc(-c4cnccn4)cn3)cc2C)ccn1 [LGK-974] | 105% | 7.61 ± 0.06 µM | – | – | 2.33 µM | 2.34 µM | – | – | –
CC[C@@H]([C@H](C)O)n1ncn(-c2ccc(N3CCN(c4ccc(OC[C@@H]5CO[C@@](Cn6cncn6)(c6ccc(F)cc6F)C5)cc4)CC3)cc2)c1=O [Posaconazole] | – | 14.6 ± 0.67 µM | – | – | 2.37 µM | 2.34 µM | – | – | –
CCCCCCCCN=c1ccn(CCCCCCCCCCn2ccc(=NCCCCCCCC)cc2)cc1 [Octenidine Dihydrochloride] | 77% | 2.4 ± 0.09 µM | – | – | 1.14 µM | 1.15 µM | – | – | –
Fc1ccc(-c2cncc(CN3CCN(c4cccc5c4OCCO5)CC3)c2)cc1 [Adoprazine] | 81.4% | 75.9 ± 54.2 µM | – | – | 23.4 µM | 23.4 µM | – | – | –
Cc1c(C(=O)Nc2ccc(N3C[C@@H](C)O[C@@H](C)C3)nc2)cccc1-c1ccc(OC(F)(F)F)cc1 [LDE225 (NVP-LDE225, Erismodegib), Erismodegib] | 93.5% | 2.26 ± 1.28 µM | – | – | 7.03 µM | 7.08 µM | – | – | –
S=C(NCc1ccc2c(c1)OCO2)N1CCN(c2ncnc3c2oc2ccccc23)CC1 [Amuvatinib (MP-470), Amuvatinib] | – | 0.06 ± 0.01 µM | – | – | – | 0.0302 µM | – | – | –
COC(=O)C[C@](O)(CCC(C)(C)O)C(=O)O[C@@H]1C(OC)=C[C@]23CCCN2CCc2cc4c(cc2[C@H]13)OCO4 [Harringtonine] | 93.6% | – | – | – | 23.7 µM | 23.4 µM | 19 µM | 19.1 µM | 0.07 ± 0.06 µM
